Results taken from PubChem BioAssay (NCI).
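48-hour exposure; five concentrations; linearly interpolated endpoints. GI50 is the concentration that inhibits growth by half. TGI is the concentration that stops growth completely.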

Key:
Assay in all cases: NCI-60 cell line screen, 48 h
OVCAR-8 ovarian = test system: OVCAR-8 ovarian
MOLT-4 leukemia = test system: MOLT-4 leukemia
SK-MEL-2 melanoma = test system: SK-MEL-2 melanoma
MALME-3M melanoma = test system: MALME-3M melanoma
UACC-62 melanoma = test system: UACC-62 melanoma
RXF 393 renal = test system: RXF 393 renal
OVCAR-4 ovarian = test system: OVCAR-4 ovarian
ACHN renal = test system: ACHN renal
SF-268 CNS = test system: SF-268 CNS
LOX IMVI melanoma = test system: LOX IMVI melanoma

Row | SMILES | TGI (OVCAR-8 ovarian) | TGI (MOLT-4 leukemia) | TGI (SK-MEL-2 melanoma) | TGI (MALME-3M melanoma) | TGI (UACC-62 melanoma) | TGI (RXF 393 renal) | TGI (OVCAR-4 ovarian) | TGI (ACHN renal) | TGI (SF-268 CNS) | TGI (LOX IMVI melanoma) | GI50 (OVCAR-8 ovarian) | GI50 (MOLT-4 leukemia) | GI50 (SK-MEL-2 melanoma) | GI50 (MALME-3M melanoma) | GI50 (UACC-62 melanoma) | GI50 (RXF 393 renal) | GI50 (OVCAR-4 ovarian) | GI50 (ACHN renal) | GI50 (SF-268 CNS) | GI50 (LOX IMVI melanoma)
1 | CCOC(=O)C1Nc2ccc([N+](=O)[O-])cc2[C@H]2OCC[C@@H]12 (stereo not given in full) | > 100 µM | > 100 µM | > 100 µM | > 100 µM | > 100 µM | > 100 µM | > 100 µM | > 100 µM | > 100 µM | > 100 µM |  |  |  |  |  |  |  |  |  | 
2 | O=C1c2cccc3c([N+](=O)[O-])ccc(c23)C(=O)N1CCCCl | > 10 µM | 5.95 µM | > 10 µM | > 10 µM | > 10 µM | > 10 µM | > 10 µM | > 10 µM | > 10 µM | 2.96 µM | 3.86 µM | 2.41 µM | > 10 µM | 9.77 µM | 4.48 µM | 3.85 µM | 4.77 µM | > 10 µM | 3.17 µM | 1.47 µM
3 | CC[C@]12C=CCN3CC[C@@]4(c5ccc(OC)cc5N(C)[C@H]4[C@@](O)(C(=O)OC)[C@@H]1OC(=O)CCCC[P+](c1ccccc1)(c1ccccc1)c1ccccc1)[C@@H]32 | 9.92 µM | 5.29 µM | 1.45 µM | 1.35 µM | 1.54 µM | 2.72 µM | 10.8 µM | 30.1 µM | 3.98 µM | 9.03 µM | 2.23 µM | 1.36 µM | 0.478 µM | 0.319 µM | 0.374 µM | 0.635 µM | 0.342 µM | 14 µM | 0.644 µM | 1.11 µM
4 | CC(C)(C)n1nc(C2CC2)cc1NC(=O)Nc1ccc(Cl)cc1 | > 100 µM | > 100 µM | > 100 µM | > 100 µM | > 100 µM | > 100 µM | > 100 µM | > 100 µM | > 100 µM | > 100 µM |  |  |  |  |  |  |  |  |  | 
5 | Nc1nc(=O)c2[nH]cnc2n1O | > 100 µM | > 100 µM | > 100 µM | > 100 µM | > 100 µM | > 100 µM | > 100 µM | > 100 µM | > 100 µM | > 100 µM |  |  |  |  |  |  |  |  |  | 
6 | COc1ccc(-c2cc(=O)c3c(OC)c(O)c(OC)cc3o2)cc1 | > 100 µM | > 100 µM | > 100 µM | > 100 µM | > 100 µM | > 100 µM | > 100 µM | > 100 µM | > 100 µM | > 100 µM |  |  |  |  |  |  |  |  |  | 
7 | COc1ccc2c3c(ccc2c1)NC(C(=O)O)CC3 (stereo not given) | > 100 µM | 56.9 µM | > 100 µM | > 100 µM | > 100 µM | > 100 µM | > 100 µM | > 100 µM | > 100 µM | > 100 µM |  |  |  |  |  |  |  |  |  | 
8 | Cc1ccc(C(=O)Nc2ccc(CN3CCN(C)CC3)c(C(F)(F)F)c2)cc1C#Cc1cnc(N)c2ccc(C#N)cc12 | > 11.7 µM | > 12 µM | 9.51 µM | 0.694 µM | 3.64 µM | 5.82 µM | 11.8 µM | 6.23 µM | 17.2 µM | 6.79 µM | 0.541 µM | 0.105 µM | 0.0327 µM | 0.0237 µM | 0.0212 µM | 0.0407 µM | 0.375 µM | 0.0182 µM | 0.206 µM | 0.0419 µM
9 | O=C(/C=C/c1ccccc1)Nc1ncc(Cc2ccccc2)s1 | > 40.9 µM | > 100 µM | > 69.1 µM | > 100 µM | 4.28 µM | 1.59 µM | 6.54 µM | 31.4 µM | > 100 µM | > 23.2 µM | 0.488 µM | 0.345 µM | 0.479 µM | 1.08 µM | 0.125 µM | 0.267 µM | 1.38 µM | 0.4 µM | 0.963 µM | 0.139 µM
10 | CN(C)c1ccc(/C=N/NC(=O)CSc2nc3sc4c(c3c(=O)n2-c2ccccc2)CCCCC4)cc1 | > 100 µM | > 100 µM | 59.3 µM | > 100 µM | > 100 µM | 15.2 µM | 6.49 µM | > 100 µM | > 100 µM | > 100 µM | 4.83 µM | > 100 µM | 15.5 µM | 3.45 µM | 4.04 µM | 3.43 µM | 2.56 µM | 5.59 µM | 11.5 µM | 3.05 µM
11 | COc1ccc(NC(=O)COc2ccccc2)c(C(N)=O)c1 | > 100 µM | > 100 µM | > 83.2 µM | > 100 µM | > 81.2 µM | 13.5 µM | > 100 µM | > 100 µM | > 75.1 µM | > 100 µM | 3.01 µM | 2.67 µM | 0.729 µM | 69 µM | 1.18 µM | 1.9 µM | > 44.8 µM | 2.98 µM | 4.25 µM | 3.14 µM
12 | C=C(c1ccc(OC)c(/C=C/C(=O)c2cc(OC)c(OC)c(OC)c2)c1)c1cc(OC)c(OC)c(OC)c1 | 11.9 µM | 27 µM | 12.4 µM | 4.45 µM | 2.16 µM | 2.62 µM | > 100 µM | 2.58 µM | 3.83 µM | 1.95 µM | 0.716 µM | 1.61 µM | 2.58 µM | 1.88 µM | 0.498 µM | 1.11 µM | 3.7 µM | 1.26 µM | 1.46 µM | 0.582 µM
13 | Cc1ccc2oc(=O)cc(CC(=O)O)c2c1 | > 100 µM | > 100 µM | > 100 µM | > 100 µM | > 100 µM | > 100 µM | > 100 µM | > 100 µM | > 100 µM | > 100 µM |  |  |  |  |  |  |  |  |  | 
14 | COc1ccc2c(c1)O/C(=C\c1ccc([N+](=O)[O-])o1)C2=O | 7.46 µM | 8.26 µM | 4.01 µM | 5.77 µM | 3.54 µM | 2.99 µM | 6.5 µM | 2.69 µM | 16.8 µM | 2.96 µM | 1.41 µM | 2.13 µM | 2.13 µM | 2.45 µM | 1.59 µM | 1.47 µM | 1.87 µM | 0.625 µM | 2 µM | 1.14 µM
15 | N=C(N)c1ccc(CS(=O)(=O)F)cc1 | > 100 µM | > 100 µM | > 100 µM | > 100 µM | > 100 µM | > 100 µM | > 100 µM | > 100 µM | > 100 µM | > 100 µM | > 100 µM | > 100 µM | > 100 µM | > 100 µM | > 100 µM | > 100 µM | > 100 µM | > 100 µM | > 100 µM | 81.2 µM
16 | [O-]c1ccccc1[C-]=Nc1ccccc1O.[O-]c1ccccc1[C-]=Nc1ccccc1O.[O]=[U]=[O] | 66.7 µM | 65 µM | 37.3 µM | 30.1 µM | 31.1 µM | 45.5 µM | 46.8 µM | 26.7 µM | 58.1 µM | 68 µM | 14.8 µM | 2.95 µM | 13.2 µM | 12.8 µM | 10.4 µM | 20.1 µM | 12.1 µM | 9.09 µM | 11.3 µM | 9.82 µM
17 | COc1ccc(C2CC(c3ccc4ccccc4c3)=NN2/C=C2\SC(=S)N(NC(=O)Cc3ccccc3Nc3c(Cl)cccc3Cl)C2=O)cc1 (stereo not given) | > 100 µM | > 100 µM | 18.8 µM | > 49 µM | > 43.8 µM | 1.16 µM | > 48 µM | > 71.5 µM | > 48.8 µM | > 54 µM | 0.693 µM | 0.473 µM | 2.95 µM | 1.34 µM | 0.606 µM | 0.282 µM | 1.2 µM | 0.684 µM | 0.809 µM | 0.556 µM
18 | CS(=O)(=O)c1nccc(-c2c(-c3cccc(OCc4ccccc4)c3)nc3sccn23)n1 | > 100 µM | > 100 µM | > 100 µM | > 100 µM | > 100 µM | > 100 µM | > 100 µM | > 100 µM | > 100 µM | > 100 µM | > 27.4 µM | 1.64 µM | > 100 µM | 16.4 µM | 13.8 µM | 15.3 µM | 9.97 µM | 36.4 µM | 19.1 µM | 5.13 µM
19 | CCCCCCN(CCCCCC)C1=CC(=O)C(=O)c2ccccc21 | 29.7 µM | 51.3 µM | 35.1 µM | 35.8 µM | 30.8 µM | 40.5 µM | 29.2 µM | 30.9 µM | 36.6 µM | 22.1 µM |  |  |  |  |  |  |  |  |  | 
20 | CN1CCN2c3ccccc3CC(C#N)(C#N)C2C1 (stereo not given) | > 100 µM | > 100 µM | > 100 µM | > 100 µM | > 100 µM | > 100 µM | > 100 µM | > 100 µM | > 100 µM | > 100 µM |  |  |  |  |  |  |  |  |  | 
21 | CC[C@@]1(O)C(=O)OCc2c1cc1n(c2=O)Cc2cc3c([N+](=O)[O-])c(O)ccc3nc2-1 | 12.7 µM | 0.188 µM | 6.67 µM | 12.7 µM | 0.265 µM | 2.05 µM | 8.73 µM | 0.611 µM | > 22.3 µM | 0.91 µM | 0.249 µM | 0.0227 µM | 2.27 µM | 1.06 µM | 0.0255 µM | 0.328 µM | 2.22 µM | 0.051 µM | 0.073 µM | 0.0552 µM
22 | CN1C(=O)C(C)(C)NS1(=O)=O | > 100 µM | > 100 µM | > 100 µM | > 100 µM | > 100 µM | > 100 µM | > 100 µM | > 100 µM | > 100 µM | > 100 µM |  |  |  |  |  |  |  |  |  | 
